# Reference: patent US20210137941A1 (ZARODEX THERAPEUTICS LIMITED, priority 2018, published 2021)
# Several values for one entry are separate records, joined by “and”; a condition that tells them apart may be missing. Equal values may be shown once. Entries after “also recorded” stand apart in the source; their conditions may differ.
# Columns and labels:
# [1] = in vivo; cited from earlier work
# [2] = tested on: splenic B cell and T cell populations; assay: Wild type mouse study: spleen immunophenotyping by flow cytometry; type: in vivo, C57BL/6 mice
# [3] = tested on: B220+ B cells, plasma cells, germinal centre B cells; assay: CIA model: B cell subsets in spleen and lymph nodes by FACS; type: in vivo, DBA/1 mice
# Description: (§1) All experiments were approved by the Clinical Medicine Animal Welfare and Ethical Review Body (AWERB) and by the UK Home Office.
# (§2) At the end of the experimental period, mice were humanely euthanised and bled by cardiac puncture to obtain blood samples for serum separation, storage at −80° C. and subsequent measurement of specific anti-collagen immunoglobulin (IgG1 and IgG2a isotypes) by ELISA. In parallel, spleen and inguinal lymph nodes were harvested for evaluation of cellular composition across these compartments using multi-laser flow cytometric detection and analysis. Numbers of B cell subsets in spleen and lymph nodes were determined by FACS.
# (§3) Data were analyzed by one-way ANOVA with Tukey's or Dunnett's multiple comparison test or two-way ANOVA with Tukey's multiple comparison test as appropriate. All calculations were made using GraphPad Prism software. A P value less than 0.05 was considered significant.
# [4] = treatment-resistant schizophrenia; cited from earlier work
# [5] = tested on: Immunoglobulin levels (IgG, IgA and IgM); assay: Referred clozapine patients (Immunology clinic): serum immunoglobulins; type: in vivo, human
# [6] = tested on: T follicular helper cells (CD4+ PD1+ CXCR5+); assay: CIA model: T follicular helper cells in spleen and lymph node by FACS; type: in vivo, DBA/1 mice
# Description: as §1, §2, §3
# [7] = tested on: circulating B cell subsets; assay: Second observational study (interim analysis): peripheral blood B cell subsets by FACS; type: in vivo, human; conditions: interim data
# [8] = 13 referred patients on clozapine
# [9] = 13 referred patients, clozapine 200-750 mg, duration >4 to 21 years (two had stopped), one line per patient
smiles,measurement,setting,value
"CN1CCN(C2=Nc3cc(Cl)ccc3Nc3ccccc32)CC1 [Clozapine, clozapine]",LD50,[1],200 mg/kg
same,percentage of splenic B cells (B220+TCR-beta-) of total live splenocytes,"[2]; 5 mg/kg and 10 mg/kg IP, 21 days, FIG. 21",significantly lower percentage
same,other splenic cell populations (B220-TCR-beta-),[2]; FIG. 21,No effect
same,percentage of splenic T cells,[2]; FIG. 21,reciprocal increase
same,splenic follicular B cell subset,[2]; FIG. 22,no specific reductions
same,splenic marginal zone B cell subset,[2]; FIG. 22,no specific reductions
same,proportion of T2 B cells in the spleen,"[2]; across all doses, FIG. 22",small increase
same,activated T cells (B220+TCR-beta+) in spleen vs control,"[2]; clozapine 2.5-10 mg/kg, haloperidol 1 mg/kg, IP 21 days, FIG. 21",reduced in dose-dependent fashion
same,transitional stage 1 (T1) B cells in the spleen,"[2]; including at the 2.5 mg/kg dose, FIG. 22",mildly reduced proportion
same,germinal centre cells in the spleen vs control or haloperidol,"[2]; steady state, FIG. 22",no differences observed
same,proportion of B220+ B cells in spleen,"[3]; 10 mg/kg from day 1, FIG. 29",significantly reduced
same,proportion of plasma cells in spleen,"[3]; 10 mg/kg given on day 1, FIG. 30",significant reduction
same,plasma cell numbers in lymph node,[3]; FIG. 30,no significant effect
same,level of GL7 expression on follicular B cells in lymph node,"[3]; all clozapine treatment groups vs vehicle, FIG. 32",significantly decreased
same,percentage of B220+ B cells in lymph nodes,"[3]; all doses and time points (5 or 10 mg/kg from day 1 or day 15), FIG. 29",significantly lower percentage
same,lymph node follicular B cells (B220+IgD-Fas+GL7hi),"[3]; all doses/both time points, FIG. 31",Strikingly significant reductions
same,previously treatment refractive patients in whom effective,[4],approximately 60%
same,"mean IgA, referred patients",[5]; [8],0.34 g/L
same,"mean IgG, referred patients",[5]; [8],3.6 g/L
same,"mean IgM, referred patients",[5]; [8],0.21 g/L
same,"serum IgA, individual referred patients",[5]; [9],IgA 0.54 g/L and <0.22 g/L (6×) and IgA 0.49 g/L and IgA 0.38 g/L and undetect- and IgA 0.26 g/L and IgA 0.81 g/L and IgA 0.63 g/L
same,"serum IgG, individual referred patients",[5]; [9],IgG 4.8 g/L and <1.34 g/L (2×) and IgG 5.24 g/L and IgG 2.68 g/L and IgG 2.98 g/L and IgG 1.2 g/L and IgG 3.3 g/L and IgG 2.38 g/L and IgG 4.24 g/L and IgG 6.65 g/L and IgG 5.61 g/L and IgG 4.79 g/L
same,"serum IgM, individual referred patients",[5]; [9],IgM 0.3 g/L and <0.17 g/L (7×) and 0.41 g/L (2×) and 0.23 g/L and 0.07 g/L and 0.18 g/L
same,"serum IgG, individual referred patients","[5]; 13 referred patients, clozapine 200-750 mg, duration >4 to 21 years (two had stopped), one line per patient, listed as clozapine",3.3 g/L
same,serum IgG post-discontinuation of clozapine,"[5]; FIG. 5, gradual recovery over 3 years",5.95 g/L
same,serum IgG at discontinuation of clozapine,"[5]; FIG. 5, start of recovery",3.5 g/L
same,IgA and IgM following cessation of clozapine,[5]; FIG. 5 / one patient over 24 months,without clear improvement; also recorded: remained low
same,serum IgM after stopping clozapine,"[5]; one patient, 24 months after clozapine cessation",0.49 after 24 months
same,"serum IgG after stopping clozapine, intermediate value","[5]; one patient, within 24 months after cessation",4.8 g/L
same,proportions of CD4+PD1+CXCR5+ T follicular helper cells in lymph node or spleen,"[6]; 5 or 10 mg/kg from day 1 or day 15, FIG. 34",did not significantly affect
same,expression of PD-1 (MFI) in lymph node T follicular helper cells,"[6]; all doses and time points, FIG. 35",Reduced expression
same,CXCR5 expression (MFI) on T follicular helper cells,"[6]; dosed from day 1, lymph node and spleen, FIG. 36",significant reductions
same,expression of CCR7 on germinal centre resident T follicular helper cells,"[6]; lymph node and spleen, FIG. 37",reduction in expression
same,overall CD19+ B cell numbers vs control,[7]; FIG. 8A-B,not significantly different
same,naive (CD19+CD27-) B cells as a proportion of total CD19+ B cells,[7]; FIG. 9A-C,Small increase
same,overall memory B cell pool,[7]; FIG. 10A-C,without perturbation
same,IgM hi IgD lo memory B cell subpopulation,[7]; FIG. 12A-C,without perturbation
same,circulating levels of marginal zone B cells,[7]; FIG. 14A-C,No significant difference
same,class-switched memory B cells (CD27+ IgM- IgD- as % B),"[7]; P=0.06 vs control, FIG. 11A-C",Strong trends to a specific reduction
same,levels of plasmablasts,"[7]; P=0.07 vs control clozapine naive, FIG. 15A-C",Strong trends to reduction
